Assay results from patent US11878975B2, “Substituted indole compounds useful as TLR inhibitors” (BRISTOL-MYERS SQUIBB COMPANY, priority 2017, dated 2024).

How the values were obtained:
Type in all cases: cell-based
[1] = target: T1, human TLR7 (Homo sapiens, UniProt Q9NYK1); test: TLR7 inhibition reporter assay (HEK-Blue cells, SEAP reporter, gardiquimod stimulation); details: HEK-Blue cells overexpressing human TLR7, SEAP reporter, gardiquimod 7.5 μM
T1 construct: host or cells: HEK-Blue cells
T1 sequence (Q9NYK1 27-1049): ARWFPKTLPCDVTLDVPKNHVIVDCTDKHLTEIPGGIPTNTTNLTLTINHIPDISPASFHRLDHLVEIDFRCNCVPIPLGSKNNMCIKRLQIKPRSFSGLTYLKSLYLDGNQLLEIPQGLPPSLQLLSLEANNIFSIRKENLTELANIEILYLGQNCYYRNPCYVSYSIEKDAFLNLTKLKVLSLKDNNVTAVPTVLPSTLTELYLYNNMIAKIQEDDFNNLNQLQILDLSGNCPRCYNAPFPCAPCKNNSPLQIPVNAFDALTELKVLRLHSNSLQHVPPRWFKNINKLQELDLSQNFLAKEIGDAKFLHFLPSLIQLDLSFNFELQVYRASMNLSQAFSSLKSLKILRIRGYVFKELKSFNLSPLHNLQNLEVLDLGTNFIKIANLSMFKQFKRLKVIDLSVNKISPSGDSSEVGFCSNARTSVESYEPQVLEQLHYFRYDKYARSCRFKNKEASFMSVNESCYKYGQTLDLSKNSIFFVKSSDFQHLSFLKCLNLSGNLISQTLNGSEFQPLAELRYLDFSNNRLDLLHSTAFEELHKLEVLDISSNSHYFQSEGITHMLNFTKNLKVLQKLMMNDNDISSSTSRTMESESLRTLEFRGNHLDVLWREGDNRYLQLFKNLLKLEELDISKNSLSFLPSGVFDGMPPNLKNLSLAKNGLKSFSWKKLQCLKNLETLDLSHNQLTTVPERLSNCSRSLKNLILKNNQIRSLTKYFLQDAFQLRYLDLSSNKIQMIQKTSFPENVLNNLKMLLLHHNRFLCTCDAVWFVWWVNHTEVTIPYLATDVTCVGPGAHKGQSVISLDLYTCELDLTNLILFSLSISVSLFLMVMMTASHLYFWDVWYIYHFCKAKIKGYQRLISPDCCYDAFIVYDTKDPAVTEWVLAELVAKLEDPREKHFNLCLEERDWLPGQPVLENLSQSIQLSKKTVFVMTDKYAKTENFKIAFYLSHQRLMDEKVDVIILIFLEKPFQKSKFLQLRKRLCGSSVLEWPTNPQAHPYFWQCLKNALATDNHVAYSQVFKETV
In short: (§1)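 Dose range 0.05 nM–50 μM; 30 min preincubation, RT. Agonists: TLR7 gardiquimod 7.5 μM, TLR8 R848 15.9 μM, TLR9 ODN2006 5 nM. 22 h, 37 °C, 5% CO2. SEAP (IFN-β minimal promoter with NF-κB/AP-1 sites) via colorimetric detection medium; % inhibition vs agonist+DMSO and reference-inhibitor wells.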

[2] = target: T2, human TLR9 (Homo sapiens, UniProt Q9NR96); test: TLR9 inhibition reporter assay (HEK-Blue cells, SEAP reporter, ODN2006 stimulation); details: HEK-Blue cells overexpressing human TLR9, SEAP reporter, ODN2006 5 nM
T2 construct: host or cells: HEK-Blue cells
T2 sequence (Q9NR96 26-1032): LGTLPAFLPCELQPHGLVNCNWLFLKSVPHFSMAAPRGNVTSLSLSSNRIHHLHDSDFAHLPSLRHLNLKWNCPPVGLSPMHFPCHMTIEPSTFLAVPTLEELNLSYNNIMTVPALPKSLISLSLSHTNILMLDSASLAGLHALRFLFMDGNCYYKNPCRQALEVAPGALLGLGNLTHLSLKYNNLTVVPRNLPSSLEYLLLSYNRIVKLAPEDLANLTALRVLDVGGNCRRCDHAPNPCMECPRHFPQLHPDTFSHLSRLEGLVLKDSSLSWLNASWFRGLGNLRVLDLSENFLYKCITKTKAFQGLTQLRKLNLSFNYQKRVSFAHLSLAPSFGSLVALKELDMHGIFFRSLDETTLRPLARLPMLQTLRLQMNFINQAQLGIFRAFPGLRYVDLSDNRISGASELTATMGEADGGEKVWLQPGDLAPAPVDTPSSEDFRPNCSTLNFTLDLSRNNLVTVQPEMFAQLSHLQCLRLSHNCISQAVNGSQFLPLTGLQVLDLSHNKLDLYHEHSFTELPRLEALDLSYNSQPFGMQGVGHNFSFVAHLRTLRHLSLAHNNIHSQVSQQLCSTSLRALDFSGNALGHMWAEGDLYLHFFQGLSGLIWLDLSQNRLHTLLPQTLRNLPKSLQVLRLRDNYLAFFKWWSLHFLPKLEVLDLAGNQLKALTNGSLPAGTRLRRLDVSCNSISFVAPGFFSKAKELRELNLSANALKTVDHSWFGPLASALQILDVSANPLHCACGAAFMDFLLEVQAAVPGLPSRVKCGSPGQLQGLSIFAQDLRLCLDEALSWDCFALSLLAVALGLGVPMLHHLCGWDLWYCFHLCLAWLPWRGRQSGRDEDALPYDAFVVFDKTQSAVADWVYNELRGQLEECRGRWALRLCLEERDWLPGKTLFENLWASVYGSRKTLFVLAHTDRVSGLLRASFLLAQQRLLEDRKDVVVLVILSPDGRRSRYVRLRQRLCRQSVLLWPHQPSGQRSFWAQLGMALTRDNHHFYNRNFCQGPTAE
In short: as §1

[3] = target: T3, human TLR8 (Homo sapiens, UniProt Q9NR97); test: TLR8 inhibition reporter assay (HEK-Blue cells, SEAP reporter, R848 stimulation); details: HEK-Blue cells overexpressing human TLR8, SEAP reporter, R848 15.9 μM
T3 construct: host or cells: HEK-Blue cells
T3 sequence (Q9NR97 27-1041): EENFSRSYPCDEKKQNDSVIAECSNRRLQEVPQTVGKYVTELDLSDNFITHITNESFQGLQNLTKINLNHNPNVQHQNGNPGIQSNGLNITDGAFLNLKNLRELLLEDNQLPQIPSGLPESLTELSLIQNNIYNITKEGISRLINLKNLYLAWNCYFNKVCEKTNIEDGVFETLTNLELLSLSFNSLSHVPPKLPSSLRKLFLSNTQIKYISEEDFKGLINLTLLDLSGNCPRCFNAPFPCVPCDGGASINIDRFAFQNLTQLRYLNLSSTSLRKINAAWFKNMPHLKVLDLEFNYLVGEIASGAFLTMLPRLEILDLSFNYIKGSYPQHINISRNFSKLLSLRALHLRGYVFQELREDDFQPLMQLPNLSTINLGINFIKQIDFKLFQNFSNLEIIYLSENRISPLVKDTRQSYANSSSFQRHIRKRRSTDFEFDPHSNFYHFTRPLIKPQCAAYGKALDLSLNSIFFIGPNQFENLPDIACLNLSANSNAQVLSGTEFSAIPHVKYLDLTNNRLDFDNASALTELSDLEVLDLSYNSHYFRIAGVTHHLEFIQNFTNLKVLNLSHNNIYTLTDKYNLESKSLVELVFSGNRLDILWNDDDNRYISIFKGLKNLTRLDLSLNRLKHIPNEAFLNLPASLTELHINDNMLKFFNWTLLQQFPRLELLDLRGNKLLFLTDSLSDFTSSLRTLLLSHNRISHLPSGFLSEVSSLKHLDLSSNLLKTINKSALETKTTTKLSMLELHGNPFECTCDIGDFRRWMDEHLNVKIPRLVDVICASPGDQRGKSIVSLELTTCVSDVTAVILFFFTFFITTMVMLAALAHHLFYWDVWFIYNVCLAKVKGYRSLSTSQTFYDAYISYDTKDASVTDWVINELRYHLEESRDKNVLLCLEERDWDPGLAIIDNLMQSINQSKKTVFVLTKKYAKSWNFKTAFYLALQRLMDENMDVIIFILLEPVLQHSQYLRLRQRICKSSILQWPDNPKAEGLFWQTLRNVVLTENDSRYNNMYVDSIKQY
In short: as §1

Row | SMILES | IC50 [1] [nM] | IC50 [2] [nM] | IC50 [3] [nM]
1 | COc1cc(-c2[nH]c3ccc(C4CN(CC(=O)N(C)C)CCO4)cc3c2C(C)C)cn2ncnc12 (stereo not drawn) [Example 314] | 24 | > 50000 | 13
2 | Cc1cc(-c2[nH]c3ccc(C4CN5CCC4CC5)cc3c2C(C)C)cn2ncnc12 (stereo not drawn) [Example 365] | 0.22 | 745 | 1.6
3 | Cc1cc(-c2[nH]c3ccc(C4CN5CCC4CC5)cc3c2C(C)C)cc(C)n1 (single isomer, unassigned) [Example 362, 3-(2-(2,6-dimethylpyridin-4-yl)-3-isopropyl-1H-indol-5-yl)quinuclidine] | 6 | 432 | 14
4 | COc1cc(-c2[nH]c3ccc(C4CCC(N(C)OC)CC4)cc3c2C(C)C)cn2ncnc12 (stereo not drawn) [Example 100] | 32 | 14600 | 431
5 | COc1cc(-c2[nH]c3ccc(C4CCC(NC5(C)COC5)CC4)cc3c2C(C)C)cn2ncnc12 (single isomer, unassigned) [Example 45] | 1 | 1990 | 3.8
6 | Cc1cc(-c2[nH]c3ccc(C4CCNC4)cc3c2C(C)C)cc(C)n1 (stereo not drawn) [Example 590] | 5 | 930 | 0.5
7 | Cc1cc(-c2[nH]c3ccc(C4CN(CC(C)(C)O)CCO4)cc3c2C(C)C)cn2ncnc12 (single isomer, unassigned) [Example 356] | 6 | 6990 | 4.6
8 | COc1cc(-c2[nH]c3ccc(CC4CNC4)cc3c2C(C)C)cn2ncnc12 [Example 430] | 12 | 860 | 41
9 | COc1cc(-c2[nH]c3ccc(C4CCC(N(C)C(C)C)CC4)cc3c2C(C)C)cn2ncnc12 (single isomer, unassigned) [Example 6, N-isopropyl-4-(3-isopropyl-2-(8-methoxy-[1,2,4]triazolo[1,5-a]pyridin-6-yl)-1H-indol-5-yl)-N-methylcyclohexanamine] | 0.33 | 1210 | 1
10 | Cc1cc(-c2[nH]c3ccc(C4CN5CCC4CC5)cc3c2C(C)C)cn2ncnc12 (stereo not drawn) [Example 364] | 0.64 | 1050 | 3.8
11 | CNCC(=O)NC1CCC(c2ccc3[nH]c(-c4cc(C)nc(C)c4)c(C(C)C)c3c2)CC1 (single isomer, unassigned) [Example 130] | 5 | 236 | 33
12 | COc1cc(-c2[nH]c3ccc(C4CCCNC4)cc3c2C(C)C)cn2ncnc12 (single isomer, unassigned) [Example 183] | 2 | 4630 | 7.9
13 | COc1cc(-c2[nH]c3ccc(C4CN(C)C(C)(C)CO4)cc3c2C(C)C)cn2ncnc12 (stereo not drawn) [Example 377] | 2 | 4720 | 5.2
14 | COc1cc(-c2[nH]c3ccc(C4CCCN(C5COC5)C4)cc3c2C(C)C)cn2ncnc12 (stereo not drawn) [Example 243] | 10 | 12900 | 16
15 | Cc1cc(-c2[nH]c3ccc(C4CCC(C(=O)N5CCN(C)CC5)CC4)cc3c2C(C)C)cn2ncnc12 (single isomer, unassigned) [Example 156] | 0.82 | 3640 | 6.7
16 | Cc1cc(-c2[nH]c3ccc(C4CCC(NC5COC5)CC4)cc3c2C(C)C)cc(C)n1 (stereo not drawn) [Example 60] | 0.26 | 501 | 1.8

Next, values leading:

Row | IC50 [1] [nM] | IC50 [2] [nM] | IC50 [3] [nM] | SMILES
17 | 0.59 | 6440 | 0.61 | Cc1c(-c2[nH]c3ccc(C4CC(NC(=O)CN(C)C)C4)cc3c2C(C)C)cn2ncnc2c1C (stereo not drawn) [Example 578]
18 | 0.72 | 396 | 5.9 | CNCC(=O)N1CC(c2ccc3[nH]c(-c4cc(OC)c5ncnn5c4)c(C(C)C)c3c2)C1 [Example 268]
19 | 0.43 | 851 | 0.35 | Cc1c(-c2[nH]c3ccc(C4CCCNC4)cc3c2C(C)C)cn2ncnc2c1C (stereo not drawn) [Example 190]
20 | 13 | 16900 | 20 | Cc1c(-c2[nH]c3ccc(C4CN(CCS(C)(=O)=O)C4)cc3c2C(C)C)cn2cnnc2c1C [Example 532]
21 | 6 | 1230 | 59 | Cc1c(-c2[nH]c3ccc(C4CCC(N)CC4)cc3c2C(C)C)cn2cnnc2c1C (stereo not drawn) [Example 515]
22 | 9 | 16300 | 8.1 | CNC(=O)CN1CCCC(c2ccc3[nH]c(-c4cn5ncnc5c(C)c4C)c(C(C)C)c3c2)C1 (stereo not drawn) [Example 232]
23 | 12 | 9130 | 39 | Cc1c(-c2[nH]c3ccc(C4CCC(N(C)C)CC4)cc3c2C(C)C)cn2cnnc2c1C (stereo not drawn) [Example 529]
24 | 0.62 | 3340 | 0.37 | Cc1c(-c2[nH]c3ccc(C4CCC(N(C)CCS(C)(=O)=O)CC4)cc3c2C(C)C)cn2ncnc2c1C (stereo not drawn) [Example 151]
25 | 4 | 700 | 11 | Cc1cc(-c2[nH]c3ccc(C4CNC4)cc3c2C(C)C)cc(C)n1 [Example 259]
